Molecular target: T1, His6-LdhA (Leuconostoc mesenteroides, UniProt Q03VC9)
T1 construct: gene LEUM_1756; N-terminal His6 tag (pET28b), expressed in E. coli Rogetta gami2 (DE3) pLysS, Ni-NTA purified
Assay: NADH oxidation monitored at […] nm
Format: biochemical
Settings: 10 mM sodium pyruvate, 0.2 mM β-NADH, 50 mM Tris-HCl pH 7.0

T1 sequence (Q03VC9 entry or part of it): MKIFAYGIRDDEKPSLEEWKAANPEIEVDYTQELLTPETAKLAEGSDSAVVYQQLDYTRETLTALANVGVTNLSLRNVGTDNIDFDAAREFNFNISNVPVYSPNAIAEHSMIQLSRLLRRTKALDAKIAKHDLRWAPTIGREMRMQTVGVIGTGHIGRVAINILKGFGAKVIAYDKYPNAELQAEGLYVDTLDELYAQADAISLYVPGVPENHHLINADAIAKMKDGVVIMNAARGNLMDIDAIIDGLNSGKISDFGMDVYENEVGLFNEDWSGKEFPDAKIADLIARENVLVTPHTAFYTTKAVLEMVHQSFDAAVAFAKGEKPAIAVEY

Compound | NADH oxidation monitored at 340 nm
NC(=O)C1=CN([C@@H]2O[C@H](COP(=O)(O)OP(=O)(O)OC[C@H]3O[C@@H](n4cnc5c(N)ncnc54)[C@H](O)[C@@H]3O)[C@@H](O)[C@H]2O)C=CC1 [NADH] | reduction of pyruvate to lactate was monitored by measuring the oxidation rate of NADH
CC(=O)C(=O)O [pyruvate] | reduction of pyruvate to lactate was monitored by measuring the oxidation rate of NADH

From article PMC4823786, “Redirection of pyruvate flux toward desired metabolic pathways through substrate channeling between pyruvate kinase and pyruvate-converting enzymes in Saccharomyces cerevisiae” (Scientific Reports, 2016)
